# Assay results taken from US9656949B2, “Substituted carboxylic acid derivatives as aggrecanase inhibitors for the treatment of osteoarthritis” (MERCK PATENT GMBH, priority 2013, dated 2017).
# Starred links: 1 amine or outer side, 2 acyl side, 3 side chain; linkers in the order of their positions; H or OH if unused. Non-standard residues stand in square brackets, D forms with d. Residues, ends and D or L forms follow the SMILES beside them. *: point of attachment. X1 = N[C@@H](CC(=O)[*:2])[C@H](Cc1ccccc1)N[*:1]; Isovaleryl = CC(C)CC(=O)*
# Experiments:
# [1] = system: carrageenan-induced inflammation of rat knee joint; assay: Investigation of the anti-hyperalgesic effect in animals (carrageenan injected intra-articularly into rat knee joint); assay type: in vivo; conditions: intra-articular administration 30 minutes before CAR
# Procedure: In order to induce an inflammation reaction, a carrageenan solution (CAR, 1%, 50 μl) was injected intra-articularly on one side into a rat knee joint. The uninjected side was used for control purposes. Six animals per group were used. The […] was determined by means of a micrometer screw (medial-lateral on the knee joint), and the thermal hyperalgesia was determined by means of a directed infrared light source by the Hargreaves method (Hargreaves et al., 1988) on the sole of the foot. Since the site of inflammation (knee joint) is different from the site of measurement (paw sole), use is made here of the term secondary thermal hyperalgesia, the mechanism of which is of importance for the discovery of effective analge-sics.
# Experimental description of thermal hyperalgesia (Hargreaves test): the experimental animal is placed in a plastic chamber on a quartz sheet. Before testing, the experimental animal is firstly given about 5-15 minutes time to familiarise itself with the environment. […] Light reflected by the paw is recorded as long as the experimental animal sits still. Withdrawal of the paw interrupts this reflection, after which the infrared light source is switched off and the time from switching on to switching off is recorded. […]
# [2] = system: bovine cartilage explants; assay: GAG-Assay (GAG release from bovine cartilage explants); assay type: cell-based; conditions: Bos taurus, GAG release into supernatant, unit inferred
# Procedure: The assay is based on bovine cartilage explants from the metacarpal joint (MCP) with a diameter of 4 mm and a thickness of 1-2 mm. Explants are freshly harvested at the day of slaughter. Before the start of the experiment, explants are incubated in DMEM medium+10% serum+30 μg/ml ascorbic acid for 48 h (200 μl). The pre-incubation is performed to enlarge the assay window. Explants are incubated at 37° C. and 7.5% CO2. The number of replicates for all groups is n=4.
# Induction of cartilage degradation is induced by treatment of the explants with IL-1 alpha (10 ng/ml) in serum-free medium for 5 days. As negative control, explants are left untreated in serum-free DMEM medium. This control is not part of the baseline calculation but an internal control for the degree of degradation which is strictly dependent on the IL1-alpha quality. IL-1 alpha induces the activity of proteases such as ADAMTS-5 and MMPs which in turn degrade the matrix. Degradation products of the matrix (GAG: glycosaminoglycan) can be measured in the supernatant. The level of GAG release induced by IL1-alpha is defined as the 0% effect level. […] This DRC is the basis for the IC50 calculation.
# IL-1 alpha and the ADAMTS-5 inhibitors are incubated for 5 days, then GAG is measured in the supernatant. The explants are digested with papain to determine the amount of GAG in the explants.
# In order to investigate the effect of potential cathepsin D inhibitors on cartilage degradation, a pH-induced model based on bovine explants is used. The pH of the medium in which the explants are cultivated is matched here to the pathophysiological pH of an arthritic knee. This pH is pH 5.5. […] The amount of GAGs liberated can be determined quantitatively with the aid of DMMB (dimethylmethylene blue hydrochloride). If sulfated GAGs are detected using dimethylmethylene blue hydrochloride, the decrease in the absorption at 633 nm is utilised. […] In order to determine the concentration, a calibration line is also recorded using chondroitin sulfate. […]
# Solubility pH7.4 = assay type: physicochemical; conditions: pH 7.4, aqueous buffer
# [3] = biological target: T1, human recombinant AdamTS-5 (Homo sapiens, UniProt Q9UNA0); assay: Biochemical activity testing of ADAMTS-5: aggrecan peptide cleavage assay (AlphaScreen); conditions: 4.5 nM human recombinant AdamTS-5, biotinylated 43mer aggrecan peptide, 180 min at 37° C.; read-out: IC50 [ADAM-NTS5]M
# T1 construct: purchased R&D systems, Wiesbaden, Germany
# T1 sequence (Q9UNA0 262-930): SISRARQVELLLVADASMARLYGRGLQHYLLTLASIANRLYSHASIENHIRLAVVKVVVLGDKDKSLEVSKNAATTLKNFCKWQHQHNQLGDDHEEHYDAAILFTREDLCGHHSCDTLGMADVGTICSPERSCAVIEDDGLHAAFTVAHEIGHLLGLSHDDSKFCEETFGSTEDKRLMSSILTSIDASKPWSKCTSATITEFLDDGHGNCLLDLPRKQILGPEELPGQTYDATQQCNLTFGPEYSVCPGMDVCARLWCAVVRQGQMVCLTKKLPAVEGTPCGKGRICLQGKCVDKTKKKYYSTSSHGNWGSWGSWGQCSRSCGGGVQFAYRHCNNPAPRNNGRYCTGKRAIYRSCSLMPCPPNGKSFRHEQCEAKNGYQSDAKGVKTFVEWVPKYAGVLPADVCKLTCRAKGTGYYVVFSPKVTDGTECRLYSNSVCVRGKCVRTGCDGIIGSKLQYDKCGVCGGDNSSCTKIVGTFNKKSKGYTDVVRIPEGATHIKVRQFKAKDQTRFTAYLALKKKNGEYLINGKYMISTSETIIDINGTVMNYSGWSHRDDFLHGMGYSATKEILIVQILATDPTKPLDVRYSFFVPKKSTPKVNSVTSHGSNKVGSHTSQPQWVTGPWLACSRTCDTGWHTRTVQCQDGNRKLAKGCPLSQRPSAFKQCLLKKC
# Procedure: ADAMTS-5 is a metallo protease with glutamyl-endoprotease activity and cleaves aggrecan core protein at E373-A374 in the interglobular domain. To fully analyse the inhibitory potential of compounds on AdamTS-5 activity an Alphascreen® assay with a biotinylated 43mer aggrecan oligopeptide as substrate was performed. Cleavage by ADAMTS-5 caused production of a neoepitop N-terminus ARGS at the C-terminal fragment. The detection of this product is performed with streptavidin-AlphaScreen® donor beads binding to the biotin label and an anti-neoepitop (“ARGSV”) antibody that anchors anti-mouse IgG-coated AlphaLisa® acceptor beads to the other end of the generated fragment. Thereby, donor and acceptor beads get in proximity and a luminescence Alphascreen® signal is generated via the release of singlet oxygen. The cleavage activity was detectable directly by the increase in Alphascreen® signal.
# The aggrecan peptide cleavage assay was performed as 384 well AlphaScreen® (Perkin Elmer) assay format in Perkin Elmer 384 AlphaPlate (proxiplate) shallow well microtiter plates and was used for high throughput screen in a total assay volume of 10 μl. 4.5 nM human recombinant AdamTS-5 (R&D systems, Wiesbaden, Germany) and 30 nM biotinylated peptide […]-K(bio) (custom-made, Biosynthan, Berlin, Germany) as substrate were incubated in a total volume of 6 μl (100 mM Tris/HCl, 150 mM NaCl, 10 mM CaCl2, 0.05% Brij®-35, 1% DMSO, 0.084% BSA, pH 7.5) in the absence or presence of the test compound (10 dilution concentrations) for 180 min at 37° C. The reaction was stopped and the first detection step performed by the addition of 2 μl detection solution 1 (48 mM EDTA, 8 nM aggrecan antibody N-term neoepitope ARG, mouse monoclonal BC3 antibody (MDBioproducts, Egg, Switzerland), 100 μg/ml Streptavidin Alphascreen® donor beads (Perkin Elmer, Rodgau, Germany) in 100 mM Tris/HCl, 150 mM NaCl, 0.05% Brij®-35, 0.1% BSA, pH 7.5). After an one-hour incubation at 37° C. 2 μl of the second detection solution (25 μg/ml anti-mouse AlphaLisa® acceptor beads (Perkin Elmer, Rodgau, Germany) in 100 mM Tris/HCl, 150 mM NaCl, 0.05% Brij®-35, 0.1% BSA, pH 7.5 were added. The plates were incubated for […] in the dark.
# The AlphaScreen signal was measured with an Envision multimode reader (Perkin Elmer LAS Germany GmbH) with the Alphascreen protocol from Perkin Elmer (laser mode) emission wavelength 570 nm. The full value used was the inhibitor-free reaction. For the zero value a pharmacological reference was used. The inhibitory values (IC50) for the compounds were determined using either the program Symyx Assay Explorer® or Condosseo® from GeneData.
SMILES,"thermal hyperalgesia (Hargreaves test) ([1]; rat, difference in withdrawal times between inflamed and non-inflamed paw)",IC50 [2] [nM],solubility (Solubility pH7.4) [µg/mL],IC50 [3] [nM],"CAR-induced swelling ([1]; rat knee joint, TAC 10 μg/joint)"
"CC[C@H](C)[C@H](NC(=O)C[C@H](N)[C@H](Cc1ccccc1)NC(=O)[C@@H](NC(=O)[C@H](CC(C)C)NC(=O)CC(C)C)C(C)C)C(=O)N[C@H](C(=O)O)C(C)C [specific DDR2 inhibitor, (S)-2-[(2S,3S)-2-((3S,4S)-3-amino-4-{(S)-3-methyl-2-[(S)-4-methyl-2-(3-methyl-butyrylamino)pentanoylamino]butyrylamino}-5-phenylpentanoylamino)-3-methylpentanoylamino]-3-methylbutyric acid] (Isovaleryl-LV[X1]IV-OH)",able to reduce the extent of thermal hyperalgesia as a function of the dose,,,,
CCC[C@@H](C[C@H](NC(=O)c1ccc(-c2ccccc2)cc1)C(=O)NC(C)(C)Cc1ccc(F)cc1)C(=O)O [Compound 7],,1000,157,170,
COC[C@@H](C[C@H](NC(=O)c1ccc(-c2ccccc2)cc1)C(=O)NC(C)(C)Cc1ccc(F)cc1)C(=O)O [Compound 8],,1200,838,170,
"C[C@]12C=CC(=O)C=C1CC[C@H]1[C@@H]3C[C@@H](O)[C@](O)(C(=O)CO)[C@@]3(C)C[C@H](O)[C@@]12F [TAC, Triamcinolone, reference compound]",,,,,capable of reducing the CAR-induced swelling
"C[C@@H](C[C@H](NC(=O)c1ccc(-c2ccccc2)cc1)C(=O)NC(C)(C)Cc1ccc(F)cc1)C(=O)O [Compound 5, (2S,4S)-4-[(Biphenyl-4-carbonyl)-amino]-4-[2-(4-fluoro-phenyl)-1,1-dimethyl-ethylcarbamoyl]-2-methyl-butyric acid]",,1800,677,85,
